# Data taken from patent US7217730B2, “Method for the use of pyranoindole derivatives to treat infection with Hepatitis C virus” (Wyeth, priority 2002, dated 2007).
# Like-named read-outs stand apart in the source and are kept apart here.
# Experiments:
# [1] = biological target: T1, NS5B from the BK strain (genotype 1b) (Hepatitis C virus genotype 1b, UniProt P26663); assay: Hepatitis C polymerase inhibition, NS5B BK strain, 33P-GTP filter assay; format: biochemical; conditions: for IC50: NS5B BK strain; for inhibition at 20 µM / HCV pol % inh at 20 μM: 20 μM compound; for inhibition at 20 µM: read-out: HCV pol % inh at 20 μM
# T1 construct: NS5B from the BK strain (genotype 1b) is expressed in E. coli as a protein in which the 21 C-terminal amino acids are replaced; made in house; host or cells: E. coli
# T1 sequence (P26663 2420-2989): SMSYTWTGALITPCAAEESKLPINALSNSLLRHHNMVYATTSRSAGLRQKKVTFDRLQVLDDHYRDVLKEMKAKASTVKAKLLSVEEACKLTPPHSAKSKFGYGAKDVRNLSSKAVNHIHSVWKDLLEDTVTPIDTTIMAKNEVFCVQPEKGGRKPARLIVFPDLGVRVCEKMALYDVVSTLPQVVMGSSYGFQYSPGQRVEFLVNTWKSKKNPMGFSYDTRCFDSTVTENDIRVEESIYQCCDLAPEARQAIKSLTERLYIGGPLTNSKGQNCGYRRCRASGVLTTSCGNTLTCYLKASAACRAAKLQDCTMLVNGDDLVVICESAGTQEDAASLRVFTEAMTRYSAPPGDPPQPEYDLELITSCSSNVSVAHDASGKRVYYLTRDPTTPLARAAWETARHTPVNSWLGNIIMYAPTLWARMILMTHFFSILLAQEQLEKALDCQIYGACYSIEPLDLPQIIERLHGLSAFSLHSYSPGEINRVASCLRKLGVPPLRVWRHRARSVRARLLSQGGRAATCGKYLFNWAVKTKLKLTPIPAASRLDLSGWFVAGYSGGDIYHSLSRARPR
# Summary of the method: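 E. coli-expressed NS5B (BK, genotype 1b) with the 21 C-terminal residues replaced by a linker-His6 tag was preincubated with compound for 15 min at room temperature. It then extended a hairpin-primed heteropolymeric RNA (~3 nM, ~760 nt product) with α-[33P]-GTP for 2 h at 22–25° C. The reaction was stopped with EDTA, and incorporated label was counted on filters.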
# [2] = biological target: BB7 (RNA-dependent RNA polymerase hepatitis C virus protein sequence derived from HCV replicon) (Hepatitis C virus genotype 1b, UniProt Q9WMX2); assay: Hepatitis C polymerase inhibition, BB7 sequence; format: biochemical; conditions: Table 1B
# Sequence of BB7 (RNA-dependent RNA polymerase hepatitis C virus protein sequence derived from HCV replicon) (Q9WMX2 2420-3010): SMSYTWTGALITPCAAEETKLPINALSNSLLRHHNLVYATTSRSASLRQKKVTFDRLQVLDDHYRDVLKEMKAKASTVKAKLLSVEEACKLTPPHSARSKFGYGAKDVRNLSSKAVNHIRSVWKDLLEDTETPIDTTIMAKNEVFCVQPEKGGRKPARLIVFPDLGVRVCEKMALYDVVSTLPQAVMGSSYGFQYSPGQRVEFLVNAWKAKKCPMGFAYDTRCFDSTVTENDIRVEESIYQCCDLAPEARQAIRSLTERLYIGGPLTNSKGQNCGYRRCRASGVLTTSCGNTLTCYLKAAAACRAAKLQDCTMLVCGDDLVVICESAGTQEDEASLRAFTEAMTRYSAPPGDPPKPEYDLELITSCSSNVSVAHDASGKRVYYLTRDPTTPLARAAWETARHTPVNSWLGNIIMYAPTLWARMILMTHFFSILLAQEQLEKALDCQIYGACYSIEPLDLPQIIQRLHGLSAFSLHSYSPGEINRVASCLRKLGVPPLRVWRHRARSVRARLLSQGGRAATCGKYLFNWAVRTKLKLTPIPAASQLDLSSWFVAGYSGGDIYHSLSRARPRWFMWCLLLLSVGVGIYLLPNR
# [3] = Table 1A, read-out: HCV pol BK IC50
molecule,measurement,setting,value
"CC[C@H](C)C1(CC(=O)O)OCCc2c1[nH]c1c(C)ccc(Cl)c21 (mixture of isomers) [Example 261, (1R*,10S)-[5-chloro-8-methyl-1-(1-methylpropyl)-1,3,4,9-tetrahydropyrano[3,4-b]indol-1-yl]acetic acid]",IC50,"[1]; Table 1B, read-out: BK IC50",400 nM
same,IC50,[2],900 nM
"CC[C@H](C)C1(CC(=O)O)OCCc2c1[nH]c1c(C#N)ccc(C(F)(F)F)c21 (mixture of isomers) [Example 279, (1R*,10S)-[8-cyano-1-(1-methylpropyl)-5-trifluoromethyl-1,3,4,9-tetrahydropyrano[3,4-b]indol-1-yl]acetic acid]",IC50,"[1]; Table 1B, read-out: BK IC50",2000 nM
same,IC50,[2],2400 nM
"CC[C@H](C)C1(CC(=O)O)OCCc2c1[nH]c1c(C)ccc([N+](=O)[O-])c21 (mixture of isomers) [Example 300, (1R*,10S)-[8-methyl-1-(1-methylpropyl)-5-nitro-1,3,4,9-tetrahydropyrano[3,4-b]indol-1-yl]acetic acid]",IC50,"[1]; Table 1B, read-out: BK IC50",140 nM
same,IC50,[2],250 nM
"CC[C@H](C)C1(CC(=O)O)OCCc2c1[nH]c1c(C)cc(F)c(C#N)c21 (mixture of isomers) [Example 318, (1R*,10S)-[5-cyano-6-fluoro-8-methyl-1-(1-methylpropyl)-1,3,4,9-tetrahydropyrano[3,4-b]indol-1-yl]acetic acid]",IC50,"[1]; Table 1B, read-out: BK IC50",140 nM
same,IC50,[2],250 nM
CC[C@H](C)C1(CC(=O)O)OCCc2c1[nH]c1c(Cl)ccc(C#N)c21 (mixture of isomers) [Example 324],IC50,"[1]; Table 1B, read-out: BK IC50",200 nM
same,IC50,[2],350 nM
"CC[C@H](C)[C@@]1(CC(=O)O)OCCc2c1[nH]c1c(C)ccc(C#N)c21 (racemic) [Example 289, (1R*,10S*)-[5-cyano-8-methyl-1-(1-methylpropyl)-1,3,4,9-tetrahydropyrano[3,4-b]indol-1-yl]acetic acid]",IC50,"[1]; Table 1B, read-out: BK IC50",120 nM
same,IC50,[2],230 nM
"CC[C@@H](C)[C@@]1(CC(=O)O)OCCc2c1[nH]c1c(C)ccc(C#N)c21 (racemic) [Example 290, (1R*,10R*)-[5-cyano-8-methyl-1-(1-methylpropyl)-1,3,4,9-tetrahydropyrano[3,4-b]indol-1-yl]acetic acid]",IC50,"[1]; Table 1B, read-out: BK IC50",3200 nM
same,IC50,[2],4900 nM
"CC(C)C1(CC(=O)O)OCCc2c1[nH]c1c(Br)ccc(Br)c21 (stereo not drawn) [Example 212, (5,8-dibromo-1-isopropyl-1,3,4,9-tetrahydropyrano[3,4-b]indol-1-yl)acetic acid]",inhibition at 20 µM,[1]; Table 1A,81%
same,IC50,[1]; [3],400 nM
"CCCCC1(CC(=O)O)OCCc2c1[nH]c1c(Br)ccc(Br)c21 (stereo not drawn) [Example 213, (5,8-dibromo-1-butyl-1,3,4,9-tetrahydropyrano[3,4-b]indol-1-yl)acetic acid]",inhibition at 20 µM,[1]; Table 1A,87%
same,IC50,[1]; [3],280 nM
"CCCC1(CC(=O)O)OCCc2c1[nH]c1c(F)ccc(Cl)c21 (stereo not drawn) [Example 214, (5-chloro-8-fluoro-1-propyl-1,3,4,9-tetrahydropyrano[3,4-b]indol-1-yl)acetic acid]",inhibition at 20 µM,[1]; Table 1A,82%
same,IC50,[1]; [3],740 nM
"CCCC1(CC(=O)O)OCCc2c1[nH]c1c(F)ccc(I)c21 (stereo not drawn) [Example 215, (8-fluoro-5-iodo-1-propyl-1,3,4,9-tetrahydropyrano[3,4-b]indol-1-yl)acetic acid]",inhibition at 20 µM,[1]; Table 1A,86%
same,IC50,[1]; [3],320 nM
"CCCC1(CC(=O)O)OCCc2c1[nH]c1c(Cl)cc(C)c(Cl)c21 (stereo not drawn) [Example 216, (5,8-dichloro-6-methyl-1-propyl-1,3,4,9-tetrahydropyrano[3,4-b]indol-1-yl)acetic acid]",inhibition at 20 µM,[1]; Table 1A,86%
same,IC50,[1]; [3],260 nM
"CCCC1(CC(=O)O)OCCc2c1[nH]c1c(Cl)cc(C)c(I)c21 (stereo not drawn) [Example 217, (8-chloro-5-iodo-6-methyl-1-propyl-1,3,4,9-tetrahydropyrano[3,4-b]indol-1-yl)acetic acid]",inhibition at 20 µM,[1]; Table 1A,88%
same,IC50,[1]; [3],630 nM
"Cc1cc(F)c2[nH]c3c(c2c1C#N)CCOC3(C)CC(=O)O (stereo not drawn) [Example 219, (5-cyano-8-fluoro-1,6-dimethyl-1,3,4,9-tetrahydropyrano[3,4-b]indol-1-yl)acetic acid]",inhibition at 20 µM,[1]; Table 1A,30%
same,IC50,[1]; [3],> 5000 nM
"CCC1(CC(=O)O)OCCc2c1[nH]c1c(F)cc(C)c(C#N)c21 (stereo not drawn) [Example 220, (5-cyano-1-ethyl-8-fluoro-6-methyl-1,3,4,9-tetrahydropyrano[3,4-b]indol-1-yl)acetic acid]",inhibition at 20 µM,[1]; Table 1A,43%
same,IC50,[1]; [3],> 5000 nM
"Cc1cc(F)c2[nH]c3c(c2c1C#N)CCOC3(CC(=O)O)C(C)C (stereo not drawn) [Example 222, (5-cyano-8-fluoro-1-isopropyl-6-methyl-1,3,4,9-tetrahydropyrano[3,4-b]indol-1-yl)aceti acid]",inhibition at 20 µM,[1]; Table 1A,45%
same,IC50,[1]; [3],> 5000 nM
"C/C=C/CCC1(CC(=O)O)OCCc2c1[nH]c1c(F)cc(C)c(C#N)c21 (stereo not drawn) [Example 223, {5-cyano-8-fluoro-6-methyl-1-[(3E)-pent-3-enyl]-1,3,4,9-tetrahydropyrano[3,4-b]indol-1-yl}acetic acid]",inhibition at 20 µM,[1]; Table 1A,37%
same,IC50,[1]; [3],> 5000 nM
"CCCC1(CC(=O)O)OCCc2c1[nH]c1c(C)ccc(C(=O)NC)c21 (stereo not drawn) [Example 224, (8-methyl-5-methylcarbamoyl-1-propyl-1,3,4,9-tetrahydropyrano[3,4-b]indol-1-yl)acetic acid]",IC50,[1]; [3],> 20000 nM
"CCCC1(CC(=O)O)OCCc2c1[nH]c1c(C)ccc(C(N)=O)c21 (stereo not drawn) [Example 226, (5-carbamoyl-8-Methyl-1-propyl-1,3,4,9-tetrahydropyrano[3,4-b]indol-1-yl)acetic acid]",IC50,[1]; [3],> 20000 nM
"CCCC1(CC(=O)O)OCCc2c1[nH]c1c(C)ccc(C(=O)N(C)C)c21 (stereo not drawn) [Example 227, (5-dimethylcarbamoyl-8-Methyl-1-propyl-1,3,4,9-tetrahydropyrano[3,4-b]indol-1-yl)acetic acid]",IC50,[1]; [3],> 20000 nM
"CCCC1(CC(=O)O)OC(C)Cc2c1[nH]c1c(F)ccc(C#N)c21 (stereo not drawn) [Example 228, (5-cyano-8-fluoro-3-methyl-1-propyl-1,3,4,9-tetrahydropyrano[3,4-b]indol-1-yl)acetic acid]",IC50,[1]; [3],8900 nM
"CCCC1(CC(=O)O)OCC(C)c2c1[nH]c1c(Cl)ccc(Cl)c21 (stereo not drawn) [Example 229, (5,8-dichloro-4-methyl-1-propyl-1,3,4,9-tetrahydropyrano[3,4-b]indol-1-yl)acetic acid]",IC50,[1]; [3],7000 nM
"CCCC1(CC(=O)O)OCC(C)(C)c2c1[nH]c1c(Cl)ccc(Cl)c21 (stereo not drawn) [Example 230, (5,8-dichloro-4,4-dimethyl-1-propyl-1,3,4,9-tetrahydropyrano[3,4-b]indol-1-yl)acetic acid]",IC50,[1]; [3],3100 nM
"CCCC1(CC(=O)O)OCCc2c1n(C)c1c(Cl)ccc(Cl)c21 (stereo not drawn) [Example 232, (5,8-dichloro-9-methyl-1-propyl-1,3,4,9-tetrahydropyrano[3,4-b]indol-1-yl)acetic acid]",IC50,[1]; [3],7600 nM
"C=CCn1c2c(c3c(Cl)ccc(Cl)c31)CCOC2(CCC)CC(=O)O (stereo not drawn) [Example 233, (9-allyl-5,8-dichloro-1-propyl-1,3,4,9-tetrahydropyrano[3,4-b]indol-1-yl)acetic acid]",IC50,[1]; [3],> 20000 nM
"CCCC1(CC(=O)O)OCCc2c1n(Cc1ccccc1)c1c(Cl)ccc(Cl)c21 (stereo not drawn) [Example 234, (9-benzyl-5,8-dichloro-1-propyl-1,3,4,9-tetrahydropyrano[3,4-b]indol-1-yl)acetic acid]",IC50,[1]; [3],13000 nM
"CCOCC1(CC(=O)O)OCCc2c1[nH]c1cc(Cl)c(Cl)cc21 (stereo not drawn) [Example 241, (6,7-dichloro-1-ethoxymethyl-1,3,4,9-tetrahydropyrano[3,4-b]indol-1-yl)acetic acid]",IC50,[2],> 30000 nM
"CC1(CC(=O)O)OCCc2c1[nH]c1c(Cl)ccc(Cl)c21 (stereo not drawn) [Example 242, (5,8-dichloro-1-methyl-1,3,4,9-tetrahydropyrano[3,4-b]indol-1-yl)acetic acid]",IC50,[2],18000 nM
"COCC1(CC(=O)O)OCCc2c1[nH]c1c(Cl)ccc(C(F)(F)F)c21 (stereo not drawn) [Example 264, (8-chloro-1-methoxymethyl-5-trifluoromethyl-1,3,4,9-tetrahydropyrano[3,4-b]indol-1-yl)acetic acid]",IC50,"[1]; Table 1B, read-out: BK IC50",> 30000 nM
"N#Cc1ccc(F)c2[nH]c3c(c12)CCOC3(CC(=O)O)C1CCCCC1 (stereo not drawn) [Example 309, (5-cyano-1-cyclohexyl-8-fluoro-1,3,4,9-tetrahydropyrano[3,4-b]indol-1-yl)acetic acid]",IC50,"[1]; Table 1B, read-out: BK IC50",26000 nM
"CCC[C@]1(C(=O)O)OCCc2c1[nH]c1c(F)ccc(C#N)c21 [Example 344, (1S)-(5-cyano-8-fluoro-1-propyl-1,3,4,9-tetrahydropyrano[3,4-b]indol-1-yl)carboxylic acid]",IC50,"[1]; Table 1B, read-out: BK IC50",700 nM
"(1-propyl-8-thien-2-yl-1,3,4,9-tetrahydropyrano[3,4-b]indol-1-yl)acetic acid [Example 95]",HCV pol % inh at 20 μM,[1]; Table 1A,68%
same,IC50,[1]; [3],14400 nM
"(4-cyclobutyl-5,8-dichloro-1-propyl-1,3,4,9-tetrahydropyrano[3,4-b]indol-1-yl)acetic acid [Example 231]",IC50,[1]; [3],7200 nM
"(5-bromo-8-fluoro-1,6-dimethyl-1,3,4,9-tetrahydropyrano[3,4-b]indol-1-yl)acetic acid [Example 163]",HCV pol % inh at 20 μM,[1]; Table 1A,28%
same,IC50,[1]; [3],> 10000 nM
"(5-cyano-8-fluoro-6-methyl-1-propyl-1,3,4,9-tetrahydropyrano[3,4-b]indol-1-yl)acetic acid [Example 221]",HCV pol % inh at 20 μM,[1]; Table 1A,81%
same,IC50,[1]; [3],430 nM
"(8-fluoro-5-iodo-6-methyl-1-propyl-1,3,4,9-tetrahydropyrano[3,4-b]indol-1-yl)acetic acid [Example 218]",HCV pol % inh at 20 μM,[1]; Table 1A,92%
same,IC50,[1]; [3],290 nM
